Data reported in patent US7144920B2, “Polyamine analogs that activate antizyme frameshifting” (MediQuest Therapeutics, Inc., priority 2002, dated 2006).
Where “and” joins values, the source holds several entries; their conditions need not be identical. Identical values can stand only once. Like-named read-outs stand apart in the source and are kept apart here.

Assays:
[1] = biological target: ODC; details: read-out: Ki for ODC inhibition; cited from earlier work
[2] = test system: antizyme frameshifting (inducible 0 to +1 AZ1 construct) in HEK-293 cells; assay: dual luciferase reporter assay for antizyme frameshifting; type: cell-based; details: for frameshift-rescue factor (FRF): % RF multiplied by inverse of rescue coefficient, HEK-293; for frameshift-rescue factor (FRF) / induction of antizyme frameshifting, comparison in words: 25 μM; for EC50: HEK-293 cells grown in 2.5 mM DFMO, 50% of maximum percent frameshifting (plateau, FIG. 3), read-out: EC50 for induction of frameshifting; for induction of antizyme frameshifting, comparison in words: HEK-293 (FIG. 1, FIG. 2)
Protocol: Frameshifting can be detected using a dual luciferase reporter system that measures the efficiency of antizyme translational frameshifting (Grentzmann, G. et. al., RNA 4:479–486 (1998); Howard, M. et. al., Genes to Cells 6:931–941 (2001)). Frameshifting efficiency is determined by comparing the ratio of firefly luciferase to renilla luciferase activity in cells transfected in parallel using a control vector containing a constitutive +1 frameshift (AZ-IF) that measures the in-frame translation efficiency and a vector containing the inducible 0 to +1 frameshift (AZ1) construct. In these constructs, the renilla luciferase gene is upstream of the firefly luciferase gene which are separated by a short cloning sequence containing the portions of antizyme 1 and 2 known to contain the mRNA signals for polyamine stimulated frameshifting. Using a 96-well format, this assay system gives a quantitative measure of the efficiency of the polyamines, polyamine analogs and other compounds to induce frameshifting in a cell-based bioassay. Cells must be pretreated with α-difluoromethylornithine (DFMO), an irreversible inhibitor of ODC, prior to screening to decrease the basal antizyme frameshifting levels and increase the sensitivity to polyamine or compound-mediated stimulation of antizyme frameshifting.
FIG. 1 is a tabular representation of a large number of polyamines A-S (25 μM) that were tested for their ability to induce antizyme frameshifting using the dual luciferase reporter assay. The percent relative frameshifting value (% RF) gives a comparison of the ability of a compound to induce frameshifting compared to 25 μM spermidine. The % RF was calculated as follows. The background percent frameshifting activity determined from the 2.5 mM DFMO negative control was subtracted from the percent frameshifting activity for all compounds including the spermidine control. The background corrected frameshifting activity of each compound was then divided by the background corrected frameshifting activity induced by 25 μM spermidine and multiplied by 100. The compounds were also evaluated for their ability to rescue cells from DFMO-induced growth inhibition by determining their rescue coefficient. The rescue coefficient represents the ratio of the cell growth, as measured by O.D., in the presence of the test compound with 2.5 mM DFMO to the growth in the presence of 2.5 mM DFMO alone. The frameshift-rescue factor (FRF) is a useful factor to compare the effectiveness of the various antizyme frameshifters by taking into account their potency for inducing frameshifting and ability to rescue cells from DFMO-induced growth inhibition. The FRF was calculated by multipling the % RF value by the inverse of the rescue coefficient.
Values represent percent frameshifting following transient transfection of an AZ1-IF control and the inducible 0 to +1 AZ1 plasmid construct into HEK-293 cells grown in the presence of 2.5 mM DFMO. The compounds were added to the cells after transfection and incubated overnight before assaying the next day. Each value represents triplicate measurements.
A series of compounds are screened for their ability to induce frameshifting using the dual luciferase reporter assay. HEK-293 cells are plated in white sided, clear-bottomed 96-well assay plates at 15,000 cells per well in 100 μL of medium (DMEM supplemented with 10% fetal bovine serum (Gibco), 1% penicillin, streptomycin and L-glutamine) containing 2.5 mM DFMO. The cells are incubated for 2-days at 37° C. in an atmosphere of 5% CO2. The medium is removed and the cells are then transfected with lipofectamine reagent (LifeTechnologies) using serum free DMEM. All cells are transfected overnight with 100 ng of the appropriate plasmid DNA and 0.3 μL lipofectamine in 50 μL of serum free DMEM containing 2.5 mM DFMO. The next day, 40 μL of medium is added per well containing 3.1 mM DFMO, 2.5 mM aminoguanidine and 25% FBS. […]

[3] = test system: HEK-293 cells; assay: rescue from DFMO-induced growth inhibition; type: cell-based; details: 25 μM compound, 2.5 mM DFMO, 6 days
Protocol: FIG. 5 gives a comparison of the ability of antizyme frameshifters (25 μM) to rescue cells from 2.5 mM DFMO-induced growth inhibition compared to 25 μM spermidine (SPD) in a 6-day assay in HEK-293 cells. The rescue coefficient represents the ratio of cell growth, as measured by O.D., of the test compound with 2.5 mM DFMO versus 2.5 mM DFMO alone.
HEK-293 cells are plated in 96-well assay plates at 1,000 cells per well in 100 μL of medium (DMEM supplemented with 10% fetal bovine serum (Gibco), 1% penicillin, streptomycin and L-glutamine). The cells are incubated overnight at 37° C. in an atmosphere of 5% CO2. Compounds are added the next day to a final concentration of 25 μM along with 1 mM aminoguanidine (inhibits serum amine oxidase) and 2.5 mM DFMO in a final volume of 200 μL medium. The positive control contained 25 μM spermidine. The cells are allowed to incubate for 6 days before cell growth is measured by MTS/PMS dye assay (Cell Titer 96 Aqueous Non-Radioactive Cell Proliferation Assay, Promega). The rescue coefficients in FIG. 1 and FIG. 5 are expressed as the ratio of the O.D. ((compound+2.5 mM DFMO)/O.D. (2.5 mM DFMO alone)). Therefore, DFMO alone has a value of one. […] If the value is less than one, then the compound is growth inhibitory. If the value is 0, the compound is cytotoxic.

[4] = test system: prostate PC-3 cells; assay: growth inhibition, PC-3; type: cell-based; details: Homo sapiens; prostate PC-3 cells (data not shown)
Protocol: (§1) Cells are plated in 96-well plates such that they would be in log growth for the duration of the assay. The day after plating, the polyamine analogs are added to the cells, and growth, if any, permitted to continue for six days in the presence of 1 mM AG and 1 μM SPD when appropriate. At the end of six days, cell growth is measured by MTS/PMS dye assay (Cell Titer 96 Aqueous Non-Radioactive Cell Proliferation Assay; Promega, Madison, Wis.). IC50 refers to the concentration of the polyamine analog that results in 50% of maximum cell growth inhibition.

[5] = test system: HEK-293 cells; assay: cells; type: cell-based; details: for IC50: read-out: IC50 growth inhibition
Protocol: Cell number was determined by MTS/PMS assay from triplicate wells.
as §1

[6] = test system: mouse kidney proximal tubule (MCT) cell; details: MCT cells; cited from earlier work
[7] = test system: antizyme frameshifting; details: cited from earlier work
[8] = test system: MDA-MB-231 cells; assay: growth inhibition, MDA-MB-231; type: cell-based; details: Homo sapiens; MDA-MB-231 cells (data not shown)
Protocol: as §1

[9] = test system: HEK-293 cells; assay: depletion of intracellular polyamine levels (HPLC) and cell growth; type: cell-based
Protocol: FIG. 6 is a graph showing the effect of a 6-day incubation of compound A on HEK-293 cellular polyamine levels and cell growth. All flasks received 1 mM aminoguanidine. Cells were washed, counted, lysed in perchloric acid, dansylated and polyamine levels determined by HPLC. Each value represents the average of triplicate values with the error bars representing standard deviation.
FIG. 7 illustrates the effect of extracellular compound A on the intracellular concentration of compound A in HEK-293 cells as determined by HPLC. Cells were prepared as in FIG. 6. Peak area was normalized by dividing the peak area of the compound divided by the peak area of the internal standard, diaminoheptane. Values represent at least triplicate measurements with the error bars representing standard deviation.
Compound A is further evaluated to determine if it depletes intracellular polyamine levels in HEK-293 cells in a dose-dependent fashion (FIG. 6). HEK-293 cells are plated in 75 cm^2 flasks at 300,000 cells/mL to insure they would be in log growth for the duration of the experiment. After overnight incubation at 37° C. in an atmosphere of 5% CO2, compound A is added along with 1 mM aminoguanidine. The flasks are then incubated for 6 days at 37° C. in an atmosphere of 5% CO2. The cells are harvested by washing twice with ice-cold 1×PBS, trypsinized, counted, and lysed in 0.4 N perchloric acid. Diaminoheptane is used in all dansylation reactions as an internal standard. Peak area is normalized by dividing the peak area of the compound divided by the peak area of the internal standard. The HPLC method for the fluorometric detection of polyamines from the cell extracts is based on the procedure by Kabra (Kabra, P. M. et. al. J. Chromatogr. 380:19–32 (1986)).

NC/C=C/CN [1,4-diamino-trans-2-butene]
Ki [1]: 2 µM

Nc1ccc(N)cc1 [1,4-phenylenediamine]
Ki [1]: 46 µM

NCCCN(CCCN)Cc1ccc(CN(CCCN)CCCN)cc1 [Compound S]
percent relative frameshifting (% RF) ([2]; 25 μM compound, relative to 25 μM spermidine): 100%
ability to rescue cells from DFMO-induced growth inhibition [3]: no ability to rescue

N=C(N)NCCCCN [agmatine]
IC50 [4]: ~5000 µM
frameshift-rescue factor (FRF) [2]: 17
IC50 ([5]; Homo sapiens, HEK293, HEK-293 cells (data not shown)): ~210 µM
concentration of maximum growth inhibition [6]: ≤ 1 mM
concentration of maximum frameshifting efficiency [7]: 4 mM
IC50 [8]: ~2000 µM
ability to rescue cells from DFMO-induced growth inhibition [3]: somewhat better than either A or B in rescuing cells

NCCCCN [putrescine, reference compound]
EC50 ([2]; Homo sapiens, HEK293): 0.95 µM

NCCCCNCCCN [spermidine, reference compound]
EC50 ([2]; Homo sapiens, HEK293): 0.56 µM

NCCCNCCCCNCCCN [spermine, reference compound]
EC50 ([2]; Homo sapiens, HEK293): 0.68 µM

N-(3-aminopropyl)-xylylenediamin [Compound A]
cell growth decrease ([9]; 10 μM compound A, 6 days): 32%
spermidine levels down by ([9]; 10 μM compound A, 6 days): about 90%
cell growth decrease ([9]; 30 μM compound A, 6 days): 38.5%
intracellular spermidine level ([9]; 100 μM compound A, 6 days): non-detectable
spermine levels reduced by ([9]; 100 μM compound A, 6 days): 50%
spermine levels, of normal ([9]; compound A levels above 30 μM): approximately 50%
intracellular putrescine level ([9]; lowest concentration of compound A tested, 6 days): non-detectable
induction of antizyme frameshifting, comparison in words [2]: more potent than agmatine
frameshift-rescue factor (FRF) [2]: 120
EC50 [2]: ~120 µM
IC50 ([5]; HEK-293, 6 days, 1 mM aminoguanidine): ~60 µM and 60 µM
compound A concentrations at which 1 μM spermidine rescued cells from growth inhibition ([5]; HEK-293, 6 days, with 1 μM spermidine): 3 to 100 µM
ability to rescue cells from DFMO-induced growth inhibition [3]: neither compound A nor B significantly rescue cells

N-(4-amino-1-butane-N-(3-aminopropyl-)-xylylenediamine [Compound B]
induction of antizyme frameshifting, comparison in words [2]: more potent than agmatine
frameshift-rescue factor (FRF) [2]: 83
ability to rescue cells from DFMO-induced growth inhibition [3]: neither compound A nor B significantly rescue cells
